In ChEMBL document CHEMBL1201862, “PubChem BioAssay data set” (2004):
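All cell lines were grown in 96-well plates and treated with compound for 48 hours. Here, GI50 denotes the concentration required for 50% inhibition of growth.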 Activity calls are given as the source filed them. Cut-off read from the data, not from the text of the source: active = GI50 up to about 1.1 µM and inactive = higher.

What was measured:
Assay in all cases: NCI-60 cell line screen, 48 h
[1] = tested on: COLO 205
[2] = tested on: DLD-1
[3] = tested on: EKVX
[4] = tested on: HOP-62
[5] = tested on: K562
[6] = tested on: MOLT-4
[7] = tested on: OVCAR-4
[8] = tested on: SF-268
[9] = tested on: SF-295
[10] = tested on: SF-539
[11] = tested on: SK-MEL-28
[12] = tested on: SK-MEL-2
[13] = tested on: SNB-75
[14] = tested on: RPMI-8226
[15] = tested on: UACC-257
[16] = tested on: A498
[17] = tested on: DU-145
[18] = tested on: MDA-MB-435
[19] = tested on: MDA-N
[20] = tested on: PC-3

| Compound | GI50 [1] | GI50 [2] | GI50 [3] | GI50 [4] | GI50 [5] | GI50 [6] | GI50 [7] | GI50 [8] | GI50 [9] | GI50 [10] | GI50 [11] | GI50 [12] | GI50 [13] | GI50 [14] | GI50 [15] | GI50 [16] | GI50 [17] | GI50 [18] | GI50 [19] | GI50 [20] |
| --- | --- | --- | --- | --- | --- | --- | --- | --- | --- | --- | --- | --- | --- | --- | --- | --- | --- | --- | --- | --- |
| Cc1cc(C)nc(NS(=O)(=O)c2ccc(Nc3c4ccccc4nc4c(C(=O)NCCN(C)C)cccc34)cc2)n1 | 1.86 µM (inactive) | 5.15 µM (inactive) | 10.5 µM (inactive) | 2.52 µM (inactive) | 2.08 µM (inactive) | 0.277 µM (active) | 3.04 µM (inactive) | 2.57 µM (inactive) | 1.91 µM (inactive) | 2.85 µM (inactive) | 5.97 µM (inactive) | 4.89 µM (inactive) | 10.7 µM (inactive) | – | – | – | – | – | – | – |
| COC1CC(n2cc(F)c(N)nc2=O)OC1CO (stereo not given) | > 100 µM (inactive) | > 100 µM (inactive) | > 100 µM (inactive) | > 100 µM (inactive) | > 100 µM (inactive) | > 100 µM (inactive) | > 100 µM (inactive) | > 100 µM (inactive) | > 100 µM (inactive) | – | > 100 µM (inactive) | > 100 µM (inactive) | > 100 µM (inactive) | > 100 µM (inactive) | > 100 µM (inactive) | – | – | – | – | – |
| CC[C@]1(O)CC(OC2CC(N(C)C)C(O)C(C)O2)c2c(cc3c(c2O)C(=O)c2c(O)cccc2C3=O)[C@@H]1C(=O)OC (stereo not given in full) | 0.0881 µM (active) | – | 0.493 µM (active) | 0.146 µM (active) | 0.0733 µM (active) | 0.0405 µM (active) | 0.114 µM (active) | 0.12 µM (active) | 0.195 µM (active) | 0.59 µM (active) | 0.664 µM (active) | 0.381 µM (active) | 0.201 µM (active) | 0.125 µM (active) | 0.347 µM (active) | 0.232 µM (active) | 0.675 µM (active) | 0.291 µM (active) | 0.384 µM (active) | 0.214 µM (active) |
| CSC1=NC(=O)CCN1C1OCC(OC(C)=O)C(OC(C)=O)C1OC(C)=O (stereo not given) | 23.9 µM (inactive) | – | 20.1 µM (inactive) | 18.7 µM (inactive) | 3.65 µM (inactive) | 4.66 µM (inactive) | 19.2 µM (inactive) | 16.9 µM (inactive) | 20.1 µM (inactive) | 12.1 µM (inactive) | 16.1 µM (inactive) | 13.6 µM (inactive) | 14.7 µM (inactive) | 6.9 µM (inactive) | 18.4 µM (inactive) | 15.6 µM (inactive) | 19.9 µM (inactive) | 17.9 µM (inactive) | > 10 µM (inactive) | 15 µM (inactive) |
| COc1ccccc1C(=O)c1c(N2CCCCC2)c(=O)c1=O | > 100 µM (inactive) | – | > 100 µM (inactive) | > 100 µM (inactive) | > 100 µM (inactive) | > 100 µM (inactive) | > 100 µM (inactive) | > 100 µM (inactive) | > 100 µM (inactive) | > 100 µM (inactive) | > 100 µM (inactive) | > 100 µM (inactive) | > 100 µM (inactive) | 92.7 µM (inactive) | > 100 µM (inactive) | > 100 µM (inactive) | > 100 µM (inactive) | > 100 µM (inactive) | > 100 µM (inactive) | > 100 µM (inactive) |
| CN(C)c1ccc(/C=c2\c3cc([N+](=O)[O-])ccc3n3c2cc(-c2ccccc2)[n+]3C)cc1 | 0.297 µM (active) | – | 0.998 µM (active) | 2.04 µM (inactive) | 0.265 µM (active) | 1.75 µM (inactive) | 2.17 µM (inactive) | 0.923 µM (active) | 2.32 µM (inactive) | 0.822 µM (active) | 0.948 µM (active) | 0.521 µM (active) | 1.07 µM (active) | 0.264 µM (active) | 0.918 µM (active) | 2.28 µM (inactive) | 1.95 µM (inactive) | 0.531 µM (active) | 0.437 µM (active) | 1.91 µM (inactive) |
| CSc1nc(C)cc(N(C)c2ccccc2)n1 | 34.8 µM (inactive) | – | 37.8 µM (inactive) | 45.2 µM (inactive) | 44 µM (inactive) | 29.7 µM (inactive) | > 100 µM (inactive) | 43.8 µM (inactive) | 34.7 µM (inactive) | 28 µM (inactive) | 46.8 µM (inactive) | 40 µM (inactive) | 27.1 µM (inactive) | > 100 µM (inactive) | 31.6 µM (inactive) | 50.1 µM (inactive) | 58.6 µM (inactive) | 22.5 µM (inactive) | 24.1 µM (inactive) | 55.5 µM (inactive) |
| CCOP(=O)(OCC)/C(C#N)=C/c1[nH]cnc1C | > 100 µM (inactive) | – | > 100 µM (inactive) | > 100 µM (inactive) | > 100 µM (inactive) | > 100 µM (inactive) | > 100 µM (inactive) | > 100 µM (inactive) | > 100 µM (inactive) | 49.5 µM (inactive) | > 100 µM (inactive) | > 100 µM (inactive) | > 100 µM (inactive) | > 100 µM (inactive) | > 100 µM (inactive) | > 100 µM (inactive) | > 100 µM (inactive) | > 100 µM (inactive) | > 100 µM (inactive) | > 100 µM (inactive) |
| C/C(=N\NC(=S)NCCNC(=S)N/N=C(\C)c1ccccn1)c1ccccn1 | 2.09 µM (inactive) | – | 4.83 µM (inactive) | 1.83 µM (inactive) | 3.17 µM (inactive) | 2.15 µM (inactive) | 2.9 µM (inactive) | 1.9 µM (inactive) | 3.45 µM (inactive) | 2.36 µM (inactive) | 4.75 µM (inactive) | 1.82 µM (inactive) | 1.73 µM (inactive) | 1.7 µM (inactive) | 2.61 µM (inactive) | 4.44 µM (inactive) | 2.32 µM (inactive) | 3.91 µM (inactive) | 4.51 µM (inactive) | 3.07 µM (inactive) |
| O=C1/C(=C\Oc2ccc(F)cc2)N2CCC1CC2 | > 100 µM (inactive) | – | 55.5 µM (inactive) | > 100 µM (inactive) | 32.7 µM (inactive) | 34.1 µM (inactive) | 46.8 µM (inactive) | 89.5 µM (inactive) | > 100 µM (inactive) | > 100 µM (inactive) | 87.1 µM (inactive) | 61.2 µM (inactive) | 24.8 µM (inactive) | 52.1 µM (inactive) | 23.7 µM (inactive) | > 100 µM (inactive) | 0.544 µM (active) | 40.5 µM (inactive) | 47.2 µM (inactive) | > 100 µM (inactive) |
| CC(=O)c1c(O)c2c([nH]c1=O)CCCC2 | > 100 µM (inactive) | 21.6 µM (inactive) | 51.1 µM (inactive) | 19.9 µM (inactive) | > 100 µM (inactive) | 8.34 µM (inactive) | > 100 µM (inactive) | 46.8 µM (inactive) | 15.7 µM (inactive) | – | 94.4 µM (inactive) | – | 10.6 µM (inactive) | – | – | – | – | – | – | – |
| O=c1c(C(c2ccc(OCc3ccccc3)cc2)c2c(O)oc3ccccc3c2=O)c(O)oc2ccccc12 | 46 µM (inactive) | – | 39 µM (inactive) | 47.5 µM (inactive) | 10 µM (inactive) | 37.3 µM (inactive) | 46.1 µM (inactive) | 29.4 µM (inactive) | 61.2 µM (inactive) | 39.6 µM (inactive) | 78 µM (inactive) | 61.1 µM (inactive) | 18.6 µM (inactive) | 43.1 µM (inactive) | 78.9 µM (inactive) | 83.2 µM (inactive) | 67.6 µM (inactive) | 41.9 µM (inactive) | 24.7 µM (inactive) | 39.7 µM (inactive) |
| CN(CC(=O)O)CC(=O)O | 68.2 µM (inactive) | – | > 100 µM (inactive) | > 100 µM (inactive) | > 100 µM (inactive) | > 100 µM (inactive) | > 100 µM (inactive) | > 100 µM (inactive) | > 100 µM (inactive) | > 100 µM (inactive) | > 100 µM (inactive) | > 100 µM (inactive) | 0.427 µM (active) | > 100 µM (inactive) | > 100 µM (inactive) | > 100 µM (inactive) | > 100 µM (inactive) | > 100 µM (inactive) | > 100 µM (inactive) | > 100 µM (inactive) |
| Cc1[nH]c2ccccc2c1/C=N/c1ccc(/N=C/c2c(C)[nH]c3ccccc23)cc1 | 12.9 µM (inactive) | – | 38.9 µM (inactive) | 25.1 µM (inactive) | 21.2 µM (inactive) | 18.9 µM (inactive) | 26.4 µM (inactive) | 50 µM (inactive) | 40.6 µM (inactive) | 21.4 µM (inactive) | 97.5 µM (inactive) | 23.9 µM (inactive) | 48.3 µM (inactive) | 18.3 µM (inactive) | 67.3 µM (inactive) | 52.1 µM (inactive) | 37.4 µM (inactive) | 19.7 µM (inactive) | 30.5 µM (inactive) | 50.4 µM (inactive) |
| NC1CC(=O)c2c(I)sc(I)c21 (stereo not given) | 14.9 µM (inactive) | – | 19.9 µM (inactive) | 19.1 µM (inactive) | 8.95 µM (inactive) | 12.1 µM (inactive) | 20.1 µM (inactive) | 21 µM (inactive) | 21 µM (inactive) | 8.89 µM (inactive) | 21.4 µM (inactive) | 17.9 µM (inactive) | 20.6 µM (inactive) | 4.41 µM (inactive) | 19.8 µM (inactive) | 20 µM (inactive) | 24 µM (inactive) | 16.4 µM (inactive) | 19.7 µM (inactive) | 18.7 µM (inactive) |
| CC1=CC2C(O1)C1C(=O)C=CC(=O)C1=CC2[N+](=O)[O-] (stereo not given) | 5.73 µM (inactive) | – | 14.6 µM (inactive) | 21 µM (inactive) | 7.67 µM (inactive) | 3.48 µM (inactive) | 17.3 µM (inactive) | 15 µM (inactive) | 18.7 µM (inactive) | 33.5 µM (inactive) | 27.4 µM (inactive) | 23.3 µM (inactive) | 26.7 µM (inactive) | 9.33 µM (inactive) | 16.9 µM (inactive) | 22.9 µM (inactive) | 25.4 µM (inactive) | 12.2 µM (inactive) | 23.1 µM (inactive) | 19.9 µM (inactive) |
